Assay results from EPA's ToxValDB 9.5.
In brackets after ≈: the same amount, converted by molar mass.

Columns and labels:
Lepomis macrochirus = settings: acute; duration: 96 hours; mortality
Canidae = settings: chronic; duration: 1 years; oral; Dog Other; clinical signs
Rattus norvegicus = settings: for LD50: acute, oral, mortality
Anas platyrhynchos = settings: oral, mortality
Apis mellifera = settings: acute, mortality
Ceriodaphnia dubia = settings: chronic/long-term; duration: 7 days; reproduction
Leuciscus idus = settings: acute; duration: 96 hours; mortality
Mus musculus = settings: acute; oral; mortality
Macaca mulatta = settings: acute; oral; neurology
Tagia sp. = settings: acute; duration: 14 days; mortality
[1] = acute; oral; unspecified; mortality
Colinus virginianus = settings: acute; oral; diet; mortality

SMILES: CNC(=O)Oc1cccc2c1OC(C)(C)C2 [Carbofuran]
- LC50 (Lepomis macrochirus): 0.18 mg/L (≈ 0.814 µM)
- NOAEL (Canidae): 0.1 mg/kg-day
- LD50 (Rattus norvegicus): < 5.6 mg/kg
- NOAEL (Rattus norvegicus; reproduction developmental, clinical signs): 0.1 mg/kg-day
- LD50 (Anas platyrhynchos; acute, unspecified, M): 0.71 mg/kg
- LC50 (Anas platyrhynchos; short-term, feed): 1.6 mg/kg-day
- LD50 (Apis mellifera; dermal): 0.0357 µg/piece
- NOEC (Ceriodaphnia dubia): 0.00016 mg/L

SMILES: O=C(O)CCCc1c[nH]c2ccccc12 [Indole-3-butyric acid]
- LC50 (Leuciscus idus): 210 mg/L (≈ 1030 µM)
- LD50 (Mus musculus): 1920 mg/kg-day

SMILES: C/C(=C/C=C/[C@@H](C)C(=O)O)[C@H]1CN[C@H](C(=O)O)[C@H]1CC(=O)O [L-Domoic acid]
- LOAEL (Macaca mulatta): 5 mg/kg-day

SMILES: [S] [Sulfur]
- LC50 (Tagia sp.): > 1580 mg/kg
- LC50 (Oncorhynchus mykiss; acute, duration: 96 hours, mortality): > 0.063 mg/L
- NOEC (Oncorhynchus mykiss; chronic/long-term, duration: 28 days, growth): > 0.063 mg/L
- LD50 (Rattus norvegicus): > 1760 mg/kg
- NOAEL (Rattus norvegicus; short-term, duration: 28 days, no effects): > 1000 mg/kg-day
- NOAEL (Rattus norvegicus; subchronic, duration: 90 days, no effects): 1000 mg/kg-day
- LD50 [1]: > 5000 mg/kg
- LD50 (Apis mellifera; oral, unspecified): > 100 µg/piece
- LC50 (Colinus virginianus): > 1330 mg/kg-day
